In US11584714B2 (priority 2018, dated 2023):
Structures can show the parent of a compound that is named as a salt. Where two headings read alike, the source gives them in different places.

How the values were obtained:
Format in all cases: biochemical
[1] = target: mMASP-2 (Mus musculus (Mouse), UniProt Q91WP0); test: Enzymatic inhibition of mMASP-2; details: read-out: mMASP-2 Ki
[2] = target: MASP-2 (CCP1-CCP2-SP) (Homo sapiens (Human), UniProt O00187); test: biochemical; details: for MASP-2 vs. thrombin selectivity: selectivity for MASP-2 inhibition versus thrombin
[3] = target: human α-thrombin (Homo sapiens (Human), UniProt P00734); test: Enzymatic assay for thrombin (Boc-VPR-AMC substrate)

Sequence of MASP-2 (CCP1-CCP2-SP) (O00187 445-686): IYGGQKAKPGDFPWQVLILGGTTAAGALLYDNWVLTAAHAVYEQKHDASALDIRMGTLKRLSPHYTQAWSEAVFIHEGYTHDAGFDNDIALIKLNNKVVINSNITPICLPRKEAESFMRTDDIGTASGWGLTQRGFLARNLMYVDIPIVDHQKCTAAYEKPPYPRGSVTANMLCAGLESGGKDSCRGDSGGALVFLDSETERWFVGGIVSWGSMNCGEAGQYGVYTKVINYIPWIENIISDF
Sequence of mMASP-2 (Q91WP0 20-685): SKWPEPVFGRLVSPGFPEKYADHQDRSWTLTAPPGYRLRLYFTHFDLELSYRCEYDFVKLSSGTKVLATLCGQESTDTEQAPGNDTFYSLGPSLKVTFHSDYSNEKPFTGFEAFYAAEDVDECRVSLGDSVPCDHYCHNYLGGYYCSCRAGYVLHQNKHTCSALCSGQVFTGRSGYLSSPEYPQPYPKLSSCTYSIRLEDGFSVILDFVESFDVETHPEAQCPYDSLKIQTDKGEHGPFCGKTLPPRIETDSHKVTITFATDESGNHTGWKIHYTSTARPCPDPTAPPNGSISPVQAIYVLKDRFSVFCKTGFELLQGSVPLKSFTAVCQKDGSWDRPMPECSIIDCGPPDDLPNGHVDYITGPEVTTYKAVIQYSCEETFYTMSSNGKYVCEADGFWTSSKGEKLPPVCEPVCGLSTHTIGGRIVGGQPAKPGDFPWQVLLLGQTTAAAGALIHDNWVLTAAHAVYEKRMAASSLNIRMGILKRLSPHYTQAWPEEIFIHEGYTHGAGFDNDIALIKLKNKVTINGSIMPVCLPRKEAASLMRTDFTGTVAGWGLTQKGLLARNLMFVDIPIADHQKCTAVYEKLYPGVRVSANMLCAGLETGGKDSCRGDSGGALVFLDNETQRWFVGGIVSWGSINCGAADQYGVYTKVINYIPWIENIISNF

SMILES	Ki [1]	Ki ([2]; read-out: MASP-2 Ki)	MASP-2 vs. thrombin selectivity [2]	Ki ([3]; Thrombin Ki (μM))	Ki ([3]; read-out: Thrombin Ki)	Ki [2]
CC(C)c1cccc([C@H]2CN[C@@H](C(=O)N[C@@H](C)C(=O)NCc3ccc(C(=N)N)cc3)C2)c1 [compound 1316, (2R,4S)—N—((S)-1-((4-Carbamimidoylbenzyl)amino)-1-oxopropan-2-yl)-4-(3-isopropylphenyl)pyrrolidine-2-carboxamide Dihydrochloride]	< 500 nM	< 500 nM	*** (≥25 to <100-fold)	0.5 to 2.5 µM	–	–
Cc1cc(Cl)cc(CNC(=O)[C@H](C)NC(=O)[C@H]2CN(c3cccc4ccccc34)CCN2)c1O [compound 1317, (R)—N—((S)-1-((5-Chloro-2-hydroxy-3-methylbenzyl)amino)-1-oxopropan-2-yI)-4-(naphthalen-1-yl)piperazine-2-carboxamide Hydrochloride]	500 to 2500 nM	< 500 nM	–	–	> 25 µM	–
Cc1nc(N)ccc1CNC(=O)[C@H](C)NC(=O)[C@@H](CCc1ccccc1)NCCCc1cccc(O)c1 [compound 1319, (R)—N—((S)-1-(((6-Amino-2-methylpyridin-3-yl)methyl)amino)-1-oxopropan-2-yl)-2-((3-(3-hydroxyphenyl)propyl)amino)-4-phenylbutanamide Dihydrochloride salt]	10000 to 25000 nM	< 500 nM	** (≥5.0 to <25-fold)	2.5 to 10 µM	–	–
Cc1nc(N)ccc1CNC(=O)[C@H](C)NC(=O)[C@H]1C[C@H](Cc2cccc(C(F)(F)F)c2)C(=O)N1 [compound 1320, (2R,4S)—N—((S)-1-(((6-Amino-2-methylpyridin-3-yl)methyl)amino)-1-oxopropan-2-yl)-5-oxo-4-(3-(trifluoromethyl)benzyl)pyrrolidine-2-carboxamide Di-trifluoroacetate salt]	500 to 2500 nM	< 500 nM	** (≥5.0 to <25-fold)	0.5 to 2.5 µM	–	–
Cc1nc(N)ccc1CNC(=O)[C@@H](C)NC(=O)[C@H]1C[C@H](Cc2cccc(C(F)(F)F)c2)C(=O)N1 [compound 1321, (2R,4S)—N—((R)-1-(((6-Amino-2-methylpyridin-3-yl)methyl)amino)-1-oxopropan-2-yl)-5-oxo-4-(3-(trifluoromethyl)benzyl)pyrrolidine-2-carboxamide Di-trifluoroacetate salt]	> 25000 nM	–	–	–	> 25 µM	10000 to 25000 nM
Cc1nc(N)ccc1CNC(=O)[C@H](C)NC(=O)[C@H]1C[C@@H](CCc2ccccc2)CN1 [compound 1322, (2R,4R)—N—((S)-1-(((6-Amino-2-methylpyridin-3-yl)methyl)amino)-1-oxopropan-2-yl)-4-phenethylpyrrolidine-2-carboxamide Dihydrochloride]	500 to 2500 nM	< 500 nM	*** (≥25 to <100-fold)	10 to 25 µM	–	–
CCc1nc(N)ccc1CNC(=O)[C@H](C)NC(=O)[C@H]1C[C@H](c2ccccc2)CN1 [compound 1323, (2R,4R)—N—((S)-1-(((6-Amino-2-ethylpyridin-3-yl)methyl)amino)-1-oxopropan-2-yl)-4-phenylpyrrolidine-2-carboxamide Dihydrochloride]	10000 to 25000 nM	> 25000 nM	–	–	> 25 µM	–
N=C(N)c1ccc(CNC(=O)[C@H](Cc2ccc(O)cc2)NC(=O)[C@H](N)CCc2ccccc2)cc1 [compound 1326, (R)-2-Amino-N—((S)-1-((4-carbamimidoylbenzyl)amino)-3-(4-hydroxyphenyl)-1-oxopropan-2-yl)-4-phenylbutanamide Di-trifluoroacetate salt]	< 500 nM	< 500 nM	*** (≥25 to <100-fold)	10 to 25 µM	–	–
C[C@H](NC(=O)[C@@H](CCc1ccccc1)NCCc1ccc(O)cc1)C(=O)NCc1ccc(C(=N)N)cc1 [compound 1327, (R)—N—((S)-1-((4-Carbamimidoylbenzyl)amino)-1-oxopropan-2-yl)-2-((4-hydroxyphenethyl)amino)-4-phenylbutanamide dihydrochloride]	< 500 nM	< 500 nM	*** (≥25 to <100-fold)	–	< 0.5 µM	–
